Usually IC50 stands for the concentration at which inhibition is half-maximal.

One experiment addresses T1, c-kit kinase (Homo sapiens, UniProt P10721).
T1 construct: The c-kit (or kinase domain thereof) is an active kinase in AlphaScreen; poly-Histidine tag (in-house protein only) (cleaved yes); host or cells: E. coli BL21(DE3)RIL, co-expressed with PTP1B
Briefly: c-Kit biochemical assay, AlphaScreen, 10 μM ATP. To be noted: c-kit biochemical inhibitory activity; read-out: Biochemical activity (IC50 μM) Kit. Put shortly:
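His-tagged c-Kit expressed in E. coli with co-expressed PTP1B (dephosphorylated), tag removed; 0.1 ng per reaction with biotinylated-peptide substrate in 50 mM HEPES pH 7.2, 5 mM MgCl2, 5 mM MnCl2, 5% DMSO, 10 μM ATP, 1 h at room temperature. Phosphorylation detected by AlphaScreen (streptavidin donor, PY20 acceptor beads); IC50 from 8-point 1:3 dilution series.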

In the next experiment the target is T2, c-kit mutant D816V (Homo sapiens, UniProt P10721, D816V/DEL694-753).
T2 construct: residues 551-934, kinase insertion domain residues 694-753 deleted; 6x-histidine (N); made in house; host or cells: E. coli Arctic Express (DE3) RIL (Stratagene)
T2 sequence (P10721 with tags, fused parts or gaps DEL694-753/D816V): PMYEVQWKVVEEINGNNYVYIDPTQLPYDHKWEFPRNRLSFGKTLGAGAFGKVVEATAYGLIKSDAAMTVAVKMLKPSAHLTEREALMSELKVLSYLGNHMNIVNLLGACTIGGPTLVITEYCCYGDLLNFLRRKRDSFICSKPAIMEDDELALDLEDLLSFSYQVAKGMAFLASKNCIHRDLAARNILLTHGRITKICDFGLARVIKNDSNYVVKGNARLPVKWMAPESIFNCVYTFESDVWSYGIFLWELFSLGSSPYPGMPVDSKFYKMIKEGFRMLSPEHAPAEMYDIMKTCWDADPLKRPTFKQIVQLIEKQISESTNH
Nature of the experiment: c-Kit mutant D816V biochemical assay, AlphaScreen. Conditions: c-kit D816V biochemical inhibitory activity; read-out: Biochemical activity (IC50 μM) Kit D816V. Put shortly:
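Purified His-tagged c-Kit D816V (E. coli-expressed) assayed in 25 mM HEPES pH 7.2 with Mg/Mn, 5% DMSO and 10 μM ATP, 30 min at room temperature, 8-point 1:3 dilutions. Phosphorylation detected by AlphaScreen with streptavidin donor and PY20 acceptor beads; IC50 from signal versus concentration.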
(In general: In Alpha technology, singlet oxygen from a donor bead excites a nearby acceptor bead.)

T1 sequence (P10721 26-976): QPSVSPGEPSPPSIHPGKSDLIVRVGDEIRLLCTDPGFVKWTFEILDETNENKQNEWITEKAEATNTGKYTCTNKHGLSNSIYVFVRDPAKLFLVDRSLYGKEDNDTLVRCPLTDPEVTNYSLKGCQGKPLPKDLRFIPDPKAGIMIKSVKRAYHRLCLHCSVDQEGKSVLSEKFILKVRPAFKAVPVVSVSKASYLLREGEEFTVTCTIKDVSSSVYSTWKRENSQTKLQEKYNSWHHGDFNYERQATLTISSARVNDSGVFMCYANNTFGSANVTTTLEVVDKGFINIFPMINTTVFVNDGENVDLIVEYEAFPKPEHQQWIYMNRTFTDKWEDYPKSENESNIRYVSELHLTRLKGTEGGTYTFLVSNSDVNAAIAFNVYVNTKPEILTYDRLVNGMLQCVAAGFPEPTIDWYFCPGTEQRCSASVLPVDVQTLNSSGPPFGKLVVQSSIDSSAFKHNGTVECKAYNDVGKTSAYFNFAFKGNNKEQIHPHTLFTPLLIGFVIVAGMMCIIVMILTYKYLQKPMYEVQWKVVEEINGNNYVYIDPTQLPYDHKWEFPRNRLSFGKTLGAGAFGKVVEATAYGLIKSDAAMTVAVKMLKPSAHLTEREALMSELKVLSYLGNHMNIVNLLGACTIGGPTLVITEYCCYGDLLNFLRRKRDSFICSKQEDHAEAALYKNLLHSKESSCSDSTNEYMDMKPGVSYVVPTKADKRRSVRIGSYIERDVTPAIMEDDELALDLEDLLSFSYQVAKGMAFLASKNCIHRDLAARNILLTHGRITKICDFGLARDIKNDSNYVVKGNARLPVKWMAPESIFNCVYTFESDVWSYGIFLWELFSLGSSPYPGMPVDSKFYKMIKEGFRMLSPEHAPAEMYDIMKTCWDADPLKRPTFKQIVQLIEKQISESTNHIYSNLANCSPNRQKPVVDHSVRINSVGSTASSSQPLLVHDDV

For `NC(=O)N1CCN(c2ncnc3[nH]c(-c4cccnc4)cc23)CC1` [P-0130, 4-[6-(3-pyridyl)-7H-pyrrolo[2,3-d]pyrimidin-4-yl]piperazine-1-carboxamide], the 50% inhibitory concentration (IC50) at c-kit kinase was in the range of 10 to 200 µM; on c-kit mutant D816V, 1 to 10 µM.
`O=C(NCc1cncc(F)c1)N1CCN(c2ncnc3[nH]c(-c4ccc(F)cc4)cc23)CC1` [P-0131, 4-[6-(4-fluorophenyl)-7H-pyrrolo[2,3-d]pyrimidin-4-yl]-N-[(5-fluoro-3-pyridyl)methyl]piperazine-1-carboxamide]: the IC50 on c-kit kinase and at c-kit mutant D816V was 1 to 10 µM in each case.
Regarding `O=C(Nc1ccc(OC(F)(F)F)cc1)N1CCN(c2ncnc3[nH]c(-c4ccc(F)cc4)cc23)CC1` [P-0133, 4-[6-(4-fluorophenyl)-7H-pyrrolo[2,3-d]pyrimidin-4-yl]-N-[4-(trifluoromethoxy)phenyl]piperazine-1-carboxamide], the IC50 lay in the range of 0.0001 to 1 µM at c-kit kinase and 1 to 10 µM on c-kit mutant D816V.
As for `O=C(Nc1ccc(OC(F)(F)F)cc1)N1CCN(c2ncnc3[nH]c(-c4ccc(Cl)cc4)cc23)CC1` [P-0134, 4-[6-(4-chlorophenyl)-7H-pyrrolo[2,3-d]pyrimidin-4-yl]-N-[4-(trifluoromethoxy)phenyl]piperazine-1-carboxamide], the half-inhibitory concentration (IC50) at c-kit kinase fell in the range of 0.0001 to 1 µM; at c-kit mutant D816V, 1 to 10 µM.
As to `O=C(NCc1ccc(F)cc1)N1CCN(c2ncnc3[nH]cc(CC4CC4)c23)CC1` [P-0137, 4-[5-(cyclopropylmethyl)-7H-pyrrolo[2,3-d]pyrimidin-4-yl]-N-[(4-fluorophenyl)methyl]piperazine-1-carboxamide], the figures for the IC50 on c-kit kinase and at c-kit mutant D816V were 10 to 200 µM and 1 to 10 µM, respectively.
As for `COc1cccc([C@H](C)NC(=O)N2CCN(c3ncnc4[nH]c(-c5ccc(F)cc5)cc34)CC2)c1` [P-0144, 4-[6-(4-fluorophenyl)-7H-pyrrolo[2,3-d]pyrimidin-4-yl]-N-[(1S)-1-(3-methoxyphenyl)ethyl]piperazine-1-carboxamide], the half-inhibitory concentration (IC50) was in the range of 1 to 10 µM at c-kit kinase and 0.0001 to 1 µM at c-kit mutant D816V.
Take `COc1cccc([C@@H](C)NC(=O)N2CCN(c3ncnc4[nH]c(-c5ccc(F)cc5)cc34)CC2)c1` [P-0149, 4-[6-(4-fluorophenyl)-7H-pyrrolo[2,3-d]pyrimidin-4-yl]-N-[(1R)-1-(3-methoxyphenyl)ethyl]piperazine-1-carboxamide]: the IC50 on c-kit kinase and at c-kit mutant D816V was 10 to 200 µM each time.
On to `N#Cc1cc2c(N3CCN(C(=O)NCc4ccc(F)cc4)CC3)ncnc2[nH]1` [P-0150, 4-(6-cyano-7H-pyrrolo[2,3-d]pyrimidin-4-yl)-N-[(4-fluorophenyl)rnethyl]piperazine-1-carboxamide], for which the IC50 at c-kit kinase and on c-kit mutant D816V was 10 to 200 µM throughout.
For the compound `Cc1nc(-c2cccc(NC(=O)N3CCN(c4ncnc5[nH]ccc45)CC3)c2)no1` [P-0151, N-[3-(5-methyl-1,2,4-oxadiazol-3-yl)phenyl]-4-(7H-pyrrolo[2,3-d]pyrimidin-4-yl)piperazine-1-carboxamide], the IC50 on c-kit kinase and at c-kit mutant D816V was 10 to 200 µM each time.
In the case of `O=C(NCc1ccccc1Cl)N1CCN(c2ncnc3[nH]c(-c4ccc(F)cc4)cc23)CC1` [P-0154, N-[(2-chlorophenyl)methyl]-4-[6-(4-fluorophenyl)-7H-pyrrolo[2,3-d]pyrimidin-4-yl]piperazine-1-carboxamide], the IC50 lay in the range of 10 to 200 µM at c-kit kinase and 1 to 10 µM on c-kit mutant D816V.
As for `C[C@H](NC(=O)N1CCN(c2ncnc3[nH]c(-c4ccc(F)cc4)cc23)CC1)c1cccc2ccccc12` [P-0155, 4-[6-(4-fluorophenyl)-7H-pyrrolo[2,3-d]pyrimidin-4-yl]-N-[(1S)-1-(1-naphthyl)ethyl]piperazine-1-carboxamide], the IC50 on c-kit kinase was in the range of 1 to 10 µM; on c-kit mutant D816V, 0.0001 to 1 µM.
`COc1ccc(CNC(=O)N2CCN(c3ncnc4[nH]c(-c5ccc(F)cc5)cc34)CC2)cc1` [P-0157, 4-[6-(4-fluorophenyl)-7H-pyrrolo[2,3-d]pyrimidin-4-yl]-N-[(4-methoxyphenyl)methyl]piperazine-1-carboxamide]: the IC50 at c-kit kinase and on c-kit mutant D816V was 10 to 200 µM each time.
With `O=C(Nc1ccc(F)c(Cl)c1)N1CCN(c2ncnc3[nH]ccc23)CC1` [P-0165, N-(3-chloro-4-fluoro-phenyl)-4-(7H-pyrrolo[2,3-d]pyrimidin-4-yl)piperazine-1-carboxamide], the IC50 lay in the range of 1 to 10 µM on c-kit kinase and 10 to 200 µM at c-kit mutant D816V.
On the same counts, the results for `O=C(Nc1cccc(C(F)(F)F)c1)N1CCN(c2ncnc3[nH]ccc23)CC1` [P-0167, 4-(7H-pyrrolo[2,3-d]pyrimidin-4-yl)-N-[3-(trifluoromethyl)phenyl]piperazine-1-carboxamide] are 10 to 200 µM and 10 to 200 µM.
Consider `O=C(Nc1cccc(Cl)c1)N1CCN(c2ncnc3[nH]ccc23)CC1` [P-0168, N-(3-chlorophenyl)-4-(7H-pyrrolo[2,3-d]pyrimidin-4-yl)piperazine-1-carboxamide], for which the IC50 at c-kit kinase and at c-kit mutant D816V was 10 to 200 µM each time.
`COc1ccc(CCNC(=O)N2CCN(c3ncnc4[nH]ccc34)CC2)cc1` [P-0169, N-[2-(4-methoxyphenyl)ethyl]-4-(7H-pyrrolo[2,3-d]pyrimidin-4-yl)piperazine-1-carboxamide]: the IC50 on c-kit kinase and at c-kit mutant D816V was 10 to 200 µM in each case.
In the case of `O=C(NCc1ccc(Cl)cc1)N1CCN(c2ncnc3[nH]ccc23)CC1` [P-0170, N-[(4-chlorophenyl)methyl]-4-(7H-pyrrolo[2,3-d]pyrimidin-4-yl)piperazine-1-carboxamide], the values for the 50% inhibitory concentration (IC50) at c-kit kinase and on c-kit mutant D816V were 1 to 10 µM and 10 to 200 µM, respectively.
With `O=C(Nc1ccc(Cl)cc1)N1CCN(c2ncnc3[nH]ccc23)CC1` [P-0171, N-(4-chlorophenyl)-4-(7H-pyrrolo[2,3-d]pyrimidin-4-yl)piperazine-1-carboxamide], the 50% inhibitory concentration (IC50) at c-kit kinase and at c-kit mutant D816V was 10 to 200 µM throughout.
Regarding `O=C(NC1CCCC1)N1CCN(c2ncnc3[nH]ccc23)CC1` [P-0177, N-cyclopentyl-4-(7H-pyrrolo[2,3-d]pyrimidin-4-yl)piperazine-1-carboxamide], the IC50 on c-kit kinase was in the range of 10 to 200 µM; at c-kit mutant D816V it was 0.0001 to 1 µM.
For the compound `CCOc1ccc(NC(=O)N2CCN(c3ncnc4[nH]c(C)cc34)CC2)cc1` [P-0181, N-(4-ethoxyphenyl)-4-(6-methyl-7H-pyrrolo[2,3-d]pyrimidin-4-yl)piperazine-1-carboxamide], the IC50 at c-kit kinase and at c-kit mutant D816V was 10 to 200 µM in each case.
Take `O=C(NCc1ccc(F)cc1)N1CCN(c2ncnc3[nH]ccc23)CC1` [P-0182, N-[(4-fluorophenyl)methyl]-4-(7H-pyrrolo[2,3-d]pyrimidin-4-yl)piperazine-1-carboxamide]: the IC50 at c-kit kinase and on c-kit mutant D816V was 10 to 200 µM throughout.
On to `O=C(Nc1ccc(F)cc1)N1CCN(c2ncnc3[nH]ccc23)CC1` [P-0183, N-(4-fluorophenyl)-4-(7H-pyrrolo[2,3-d]pyrimidin-4-yl)piperazine-1-carboxamide], for which the IC50 at c-kit kinase lay in the range of 1 to 10 µM; on c-kit mutant D816V it was 10 to 200 µM.
For the compound `C[C@H](NC(=O)N1CCN(c2ncnc3[nH]c(-c4ccc(Cl)cc4)cc23)CC1)c1ccc(Cl)cc1` [P-0188, N-[(1S)-1-(4-chlorophenyl)ethyl]-4-[6-(4-chlorophenyl)-7H-pyrrolo[2,3-d]pyrimidin-4-yl]piperazine-1-carboxamide], the IC50 at c-kit kinase was 1 to 10 µM; on c-kit mutant D816V, 0.0001 to 1 µM.
For `O=C(NCc1ccc(Cl)cc1)N1CCN(c2ncnc3[nH]c(-c4ccc(Cl)cc4)cc23)CC1` [P-0212, N-[(4-chlorophenyl)methyl]-4-[6-(4-chlorophenyl)-7H-pyrrolo[2,3-d]pyrimidin-4-yl]piperazine-1-carboxamide], the figures for the half-inhibitory concentration (IC50) on c-kit kinase and at c-kit mutant D816V were 1 to 10 µM and 0.0001 to 1 µM, respectively.
On to `O=C(NCc1ccc(F)cc1)N1CCN(c2ncnc3[nH]c(-c4ccc(Cl)cc4)cc23)CC1` [P-0213, 4-[6-(4-chlorophenyl)-7H-pyrrolo[2,3-d]pyrimidin-4-yl]-N-[(4-fluorophenyl)methyl]piperazine-1-carboxamide], for which the IC50 at c-kit kinase and on c-kit mutant D816V was 10 to 200 µM in each case.
Turning to `CCOc1ccc(NC(=O)N2CCN(c3ncnc4[nH]c(-c5ccc(Cl)cc5)cc34)CC2)cc1` [P-0214, 4-[6-(4-chlorophenyl)-7H-pyrrolo[2,3-d]pyrimidin-4-yl]-N-(4-ethoxyphenyl)piperazine-1-carboxamide], the IC50 at c-kit kinase and on c-kit mutant D816V was 0.0001 to 1 µM in each case.
Consider `O=C(NCc1ccc(Cl)cc1)N1CCN(c2ncnc3[nH]c(-c4ccccc4)cc23)CC1` [P-0215, N-[(4-chlorophenyl)methyl]-4-(6-phenyl-7H-pyrrolo[2,3-d]pyrimidin-4-yl)piperazine-1-carboxamide], for which the half-maximal inhibitory concentration (IC50) on c-kit kinase and at c-kit mutant D816V was 10 to 200 µM in each case.
Consider `COc1ccc(S(=O)(=O)N2CCN(c3ncnc4[nH]ccc34)CC2)cc1` [P-0217, 4-[4-(4-methoxyphenyl)sulfonylpiperazin-1-yl]-7H-pyrrolo[2,3-d]pyrimidine], for which the figures for the concentration for half-maximal inhibition (IC50) at c-kit kinase and on c-kit mutant D816V were 1 to 10 µM and 10 to 200 µM, respectively.
Regarding `CCCNC(=O)N1CCN(c2ncnc3[nH]c(-c4cccnc4)cc23)CC1` [P-0218, N-propyl-4-[6-(3-pyridyl)-7H-pyrrolo[2,3-d]pyrimidin-4-yl]piperazine-1-carboxamide], the IC50 at c-kit kinase was in the range of 10 to 200 µM; on c-kit mutant D816V it was 1 to 10 µM.

The values are drawn from patent US10227357B2, “Compounds and methods for kinase modulation, and indications therefor” (Plexxikon Inc., priority 2012, dated 2019).
